Measurements as given in US10709727B2, “Antiviral drugs” (priority 2015, dated 2020).

System: influenza virus (WSN strain)
Assay type: cell-based

With “DOCK11 #2: lentivirus-expressed shRNA against DOCK11 gene, SEQ ID NO: 2, used in Examples 3, 4, 6, 8, 12 (guide CCGGGTACTAGACACCATATCATTTCTCGAGAAATGATATGGTGTCTAGTACTTTTTG)” the “localization of nucleoproteins of influenza virus in the nucleus of the host cell” value was “suppressed”.
